# Source: ChEMBL document CHEMBL3396981, “Synthesis and in vitro biological evaluation of 2-(phenylcarbamoyl)phenyl 4-substituted benzoates” (Bioorg Med Chem, 2015)
# Assays:
# [1] = system: Mycobacterium tuberculosis; test: Antimycobacterial activity against INH, RIF, rifabutin, streptomycin, ethambutol, ofloxacin-resistant Mycobacterium tuberculosis 7357/1998 after 21 days by microdilution method; assay type: functional; settings: 7357/1998, 504 h
# [2] = system: Mycobacterium tuberculosis; test: Antimycobacterial activity against INH, RIF, rifabutin, streptomycin-resistant Mycobacterium tuberculosis 9449/2006 after 14 days by microdilution method; assay type: functional; settings: 9449/2006, 336 h
# [3] = system: Mycobacterium tuberculosis; test: Antimycobacterial activity against INH, RIF, rifabutin, streptomycin, ethambutol, ofloxacin, gentamicin, amikacin-resistant Mycobacterium tuberculosis Praha 131 after 14 days by microdilution method; assay type: functional; settings: Praha 131, 336 h
# [4] = system: Mycobacterium tuberculosis; test: Antimycobacterial activity against INH, RIF, rifabutin, streptomycin, ethambutol, ofloxacin, clofazimine-resistant Mycobacterium tuberculosis Praha 4 after 14 days by microdilution method; assay type: functional; settings: Praha 4, 336 h
# [5] = system: Mycobacterium tuberculosis; test: Antimycobacterial activity against INH, RIF, rifabutin, streptomycin-resistant Mycobacterium tuberculosis 9449/2006 after 21 days by microdilution method; assay type: functional; settings: 9449/2006, 504 h
# [6] = system: Mycobacterium tuberculosis; test: Antimycobacterial activity against INH, RIF, rifabutin, streptomycin, ethambutol, ofloxacin-resistant Mycobacterium tuberculosis 7357/1998 after 14 days by microdilution method; assay type: functional; settings: 7357/1998, 336 h
# [7] = system: Mycobacterium tuberculosis; test: Antimycobacterial activity against INH, RIF, rifabutin, streptomycin, ethambutol, ofloxacin, clofazimine-resistant Mycobacterium tuberculosis Praha 4 after 21 days by microdilution method; assay type: functional; settings: Praha 4, 504 h
# [8] = system: Mycobacterium tuberculosis; test: Antimycobacterial activity against INH, RIF, rifabutin, streptomycin, ethambutol, ofloxacin, gentamicin, amikacin-resistant Mycobacterium tuberculosis Praha 131 after 21 days by microdilution method; assay type: functional; settings: Praha 131, 504 h
# [9] = Selectivity index, ratio of IC50 for human HepG2 cells to MIC for multidrug-resistant Mycobacterium tuberculosis; assay type: toxicity, cell-based; settings: read-out: Selectivity Index
# [10] = system: Mycobacterium tuberculosis; test: Antimycobacterial activity against INH, RIF, rifabutin, streptomycin, ethambutol, ofloxacin-resistant Mycobacterium tuberculosis 234/2005 after 21 days by microdilution method; assay type: functional; settings: 234/2005, 504 h
# [11] = system: Mycobacterium tuberculosis; test: Antimycobacterial activity against INH, RIF, rifabutin, streptomycin, ethambutol, ofloxacin-resistant Mycobacterium tuberculosis 234/2005 after 14 days by microdilution method; assay type: functional; settings: 234/2005, 336 h
# [12] = system: Mycobacterium tuberculosis; test: Antimycobacterial activity against INH, RIF, rifabutin, streptomycin, ethambutol, clofazimine-resistant Mycobacterium tuberculosis Praha 1 after 14 days by microdilution method; assay type: functional; settings: Praha 1, 336 h
# [13] = system: Mycobacterium tuberculosis; test: Antimycobacterial activity against INH, RIF, rifabutin, streptomycin, ethambutol, clofazimine-resistant Mycobacterium tuberculosis Praha 1 after 21 days by microdilution method; assay type: functional; settings: Praha 1, 504 h
SMILES,MIC [1] [µM],MIC [2] [µM],MIC [3] [µM],MIC [4] [µM],MIC [5] [µM],MIC [6] [µM],MIC [7] [µM],MIC [8] [µM],selectivity ratio [9],MIC [10] [µM],MIC [11] [µM],MIC [12] [µM],MIC [13] [µM]
O=C(Oc1ccc(Cl)cc1C(=O)Nc1ccc(Cl)c(Cl)c1)c1ccc(Br)cc1,0.125,0.25,0.25,0.25,0.5,0.125,0.5,0.25,> 100,,,,
O=C(Oc1ccc(Br)cc1C(=O)Nc1ccc(C(F)(F)F)cc1)c1ccccc1,0.5,1,0.5,,1,0.25,,1,,0.5,0.5,1,1
Cc1ccc(C(=O)Oc2ccc(Cl)cc2C(=O)Nc2ccc(Cl)c(Cl)c2)cc1,1,1,1,1,1,1,1,1,> 25,2,2,1,1
O=C(Oc1ccc(Cl)cc1C(=O)Nc1ccc(Cl)c(Cl)c1)c1ccc([N+](=O)[O-])cc1,0.5,0.25,0.25,0.25,0.5,0.25,0.5,0.25,> 100,,,,
O=C(Oc1ccc(Br)cc1C(=O)Nc1ccc(C(F)(F)F)cc1)c1ccc(C(F)(F)F)cc1,1,1,0.5,,1,1,,1,,1,0.5,0.5,1
O=C(Oc1ccc(Cl)cc1C(=O)Nc1ccc(C(F)(F)F)cc1)c1ccccc1,0.5,0.5,0.25,,0.5,0.25,,0.5,,0.25,0.25,0.5,0.5
O=C(Oc1ccc(Cl)cc1C(=O)Nc1ccc(C(F)(F)F)cc1)c1ccc(C(F)(F)F)cc1,1,1,0.5,,1,0.5,,1,,1,0.5,0.5,0.5
O=C(Oc1ccc(Cl)cc1C(=O)Nc1ccc(Cl)c(Cl)c1)c1ccccc1,0.5,0.5,0.5,,1,0.5,,1,,0.5,0.25,0.5,0.5
Cc1ccc(C(=O)Oc2ccc(Br)cc2C(=O)Nc2ccc(C(F)(F)F)cc2)cc1,1,1,1,1,1,1,1,1,> 25,2,2,1,1
O=C(Oc1ccc(Cl)cc1C(=O)Nc1ccc(C(F)(F)F)cc1)c1ccc([N+](=O)[O-])cc1,1,0.5,0.5,0.25,1,0.5,1,1,> 50,1,0.25,0.5,1
O=C(Oc1ccc(Cl)cc1C(=O)Nc1ccc(Cl)c(Cl)c1)c1ccc(C(F)(F)F)cc1,2,2,2,,2,1,,2,,2,1,1,2
Cc1ccc(C(=O)Oc2ccc(Cl)cc2C(=O)Nc2ccc(C(F)(F)F)cc2)cc1,1,1,1,1,1,1,1,1,> 25,2,2,1,1
O=C(Oc1ccc(Cl)cc1C(=O)Nc1ccc(C(F)(F)F)cc1)c1ccc(Br)cc1,1,1,1,,1,1,,1,> 25,2,2,1,1
O=C(Oc1ccc(Br)cc1C(=O)Nc1ccc(C(F)(F)F)cc1)c1ccc([N+](=O)[O-])cc1,0.5,0.5,0.25,0.5,0.5,0.5,0.5,0.5,> 100,,,,
O=C(Oc1ccc(Br)cc1C(=O)Nc1ccc(C(F)(F)F)cc1)c1ccc(Br)cc1,1,0.5,0.5,0.25,1,0.5,0.5,1,> 50,,,,
